Like-named read-outs stand apart in the source and are kept apart here.
Tested on: mouse brain (blood-brain barrier)
From the text: Briefly, male C57BL/6J mice (n=43, 6-8 weeks old, 20-25 g, Jackson Laboratory) were anesthetized with 2% isoflurane. The common carotid artery (CCA) bifurcation was exposed and the occipital artery branching off from the external carotid artery (ECA) was coagulated. The ECA and the pterygopalatine artery (PPA) were temporarily ligated with 4-0 silk sutures. A temporary ligature using a 4-0 suture was placed on the carotid bifurcation and the proximal CCA was permanently ligated. A microcatheter (PE-8-100, SAI Infusion Technologies) was flushed with 2% heparin (1,000 U mL^−1, heparin sodium, Upjohn), inserted into the CCA via a small arteriotomy, and advanced into the internal carotid artery (ICA).
For each animal, 150 μL of solution was infused at a rate of 150 μL minute^−1. […] The brains were harvested immediately after Evans Blue injection, sectioned in brain slicer matrix (Zivic Instruments) to produce 1 mm slabs.
Animal anesthesia was maintained at 1.5-2% during the MRI scan. Mice were placed on a water-heated animal bed equipped with temperature and respiratory control. Respiration was monitored and maintained at 30-60 minutes^−1. All MRI experiments were performed on a Bruker 11.7T MRI scanner. Baseline T2 (TR/TE=2,500/30 ms), susceptibility-weighted imaging (SWI) (TR/TE=378/8 ms), T1 (TR/TE 350/6.7 ms)-weighted, dynamic gradient echo echo-planar imaging (GE-EPI, TR/TE 1250/9.7 ms, field of view (FOV)=14×14 mm, matrix=128×128, acquisition time=60 s and 24 repetitions) and dynamic T1 imaging (TR/TE 2000/3. 5ms, field of view=14×14 mm, acquisition time=8 seconds and 20 repetitions) images of the brain were acquired. The microcatheter was connected to a syringe mounted on an MRI compatible programmable syringe pump (PHD 2000, Harvard Apparatus Inc.). Gadolinium (Gd; Prohance) dissolved in saline at 1:50 was infused intra-arterially at the rate of 150 μL minute^−1 under dynamic GE-EPI MRI for visualization of perfusion territory. […] To quantify BBB status, T1 intensities in cortex, hippocampus and thalamus/hypothalamus were compared between ipsilateral and contralateral hemispheres. T1 hyperintensity was corrected for possible asymmetry using pre-contrast T1 images and normalized as the ratio of ipsilateral to contralateral intensity. Additionally, the area of BBBO (mm^2) was calculated by conversion of T1 images to binary using the Auto Threshold function (plugin v1.17; Maximum Entropy method) [Kapur, J. N., P. K. Sahoo, and A. K. C. Wong, Computer Vision, Graphics, and Image Processing, 1985, 29(3): p. 273-285] in ImageJ. T2-weighted and SWI images were acquired at the same timepoints for detection of brain damage and microhemorrhage. Subsequently, animals were sacrificed for further histological assessment.
To determine the area and region of perfusion territory, we first calculated the contrast enhancement maps at the time where contrast enhancement was at its maximum. As Gd causes negative contrast under T2 imaging, we calculated the contrast enhancement as (SIpre-SIpost)/SIpre, where SI is the signal intensity of an MR image. Histogram was plotted for all pixels in the brain region in a contrast enhancement map and further fitted into two Gaussian distributions, assuming there were two dominant populations for non-contrast enhanced and contrast-enhanced pixels, respectively. The cutoff value to separate the two populations was then determined. The fraction of contrast enhanced areas was calculated by the ratio of the number of pixels, whose values are larger than the cutoff value, to the total number of pixels in the brain. A similar method was used to determine the BBBO territory.

Compound: CC[C@H](C)[C@H](NC(=O)CN)C(=O)NCC(=O)N[C@@H](C)C(=O)N[C@H](C(=O)N[C@@H](CC(C)C)C(=O)N[C@@H](CCCCN)C(=O)N[C@H](C(=O)N[C@@H](CC(C)C)C(=O)N[C@H](C(=O)N[C@H](C(=O)NCC(=O)N[C@@H](CC(C)C)C(=O)N1CCC[C@H]1C(=O)N[C@@H](C)C(=O)N[C@@H](CC(C)C)C(=O)N[C@H](C(=O)N[C@@H](CO)C(=O)N[C@@H](Cc1c[nH]c2ccccc12)C(=O)N[C@H](C(=O)N[C@@H](CCCCN)C(=O)N[C@@H](CCCNC(=N)N)C(=O)N[C@@H](CCCCN)C(=O)N[C@@H](CCCNC(=N)N)C(=O)N[C@@H](CCC(N)=O)C(=O)N[C@@H](CCC(N)=O)C(N)=O)[C@@H](C)CC)[C@@H](C)CC)[C@@H](C)O)[C@@H](C)O)C(C)C)C(C)C [melittin]
- Evans Blue leakage (1 μM·minute): No leakage of Evans Blue
- dose relative to solubility limit (fold below) (3 μM·min melittin): ~120 fold
- Evans Blue leakage (3 μM·minute, ipsilateral hemisphere): reproducible leakage of Evans Blue
- Evans Blue extravasation (3 μM·minute, 24 hours): no Evans Blue extravasation
- leakage of Gd (T1 MRI) (3 μM·minute, 24 hours): marginal leakage
- T1 hyperintensity (3 μM·minute, cortex): much lower
- BBB status (Gd-enhanced MRI and Evans Blue) (3 μM·minute, day 7): full recovery of the BBB
- T1 intensity, ipsilateral vs contralateral (3 μM·minute, hippocampus and thalamus/hypothalamus, following dosing): significant increase
- brain territory opened (area of BBBO, T1 thresholding) (3 μM·minute, within the hippocampus, immediately after dosing): 5.70±1.73 mm^2
- Evans Blue leakage (5 μM·minute): Widespread leakage of Evans Blue
- reduction of BBBO area (at 24 hours and 7 days): ~20 fold
- minimum effective dose for BBBO (intra-arterial (internal carotid artery), 1 minute): 3 µM·min
- difference in dose required for BBBO, human microvessels (20 μM·minute) vs mouse brain (3 μM·minute) (mouse, in vivo): approximately 7 fold

— US20240009269A1 (priority 2020, published 2024)
